Reference: US7429578B2, “Tricyclic inhibitors of poly(ADP-ribose) polymerases” (Agouron Pharmaceuticals, Inc., priority 1999, dated 2008)
Where “and” joins values, the source holds several entries; their conditions need not be identical. Equal entries are not always repeated. Structures can show the parent of a compound that is named as a salt.

Test system: not given
Assay: not given
Details: not given

Row | Compound | melting point
1 | O=C1NCCc2c(-c3ccccc3CCCO)[nH]c3cccc1c23 [BBB, 2-[2-(3-Hydroxy-propyl)-phenyl]-1,3,4,5-tetrahydro-azepino[5,4,3-cd]indol-6-one] | 233.5 to 234.5 °C
2 | O=C1NCCc2c(-c3cccs3)[nH]c3cccc1c23 [BBBB, 2-Thiophen-2-yl-1,3,4,5-tetrahydro-azepino[5,4,3-cd]indol-6-one] | 220.5 to 222.5 °C
3 | CN1CCc2c(-c3ccccc3)n(C)c3cccc(c23)C1=O [Compound 18a, 1,5-dimethyl-2-phenyl-3,4,5,6-tetrahydro-1H-azepino[5,4,3-cd]indol-6-one] | 175 to 177 °C
4 | O=C1NCCc2c(-c3cccc4ccccc34)[nH]c3cccc1c23 [Compound 41, 2-Naphthalen-1-yl-1,3,4,5-tetrahydro-azepino[5,4,3-cd]indol-6-one] | 305 °C (dec.)
5 | O=C1NCCc2c(-c3cccnc3)[nH]c3cccc1c23 [HHH, 2-Pyridin-3-yl-1,3,4,5-tetrahydro-azepino[5,4,3-cd]indol-6-one] | 260.5 to 262 °C
6 | O=C(Nc1ccccc1)c1[nH]c2cccc3c2c1CCNC3=O [KKKK, 6-Oxo-1,3,4,5-tetrahydro-1H-azepino[5,4,3-cd]indole-2-carboxylic Acid Phenylamide] | 320 to 322 °C (dec.)
7 | O=C1NCCc2c(-c3ccc4[nH]ccc4c3)[nH]c3cccc1c23 [VVV, 2-(1H-Indol-5-yl)-1,3,4,5-tetrahydro-azepino[5,4,3-cd]indol-6-one] | 315 to 317 °C (dec.)

The remaining lines, values ahead:

Row | melting point | Compound
8 | 201 to 201.5 °C | COC(=O)CCc1ccccc1-c1[nH]c2cccc3c2c1CCNC3=O [AAA, 3-[2-(6-Oxo-3,4,5,6-tetrahydro-1H-azepino[5,4,3-cd]indol-2-yl)-phenyl]-propionic acid methyl ester]
9 | 300 °C (dec.) | O=C1NCCc2c(-c3ccc(O)cc3)[nH]c3cccc1c23 [CCC, 2-(4-Hydroxy-phenyl)-1,3,4,5-tetrahydro-azepino[5,4,3-cd]indol-6-one]
10 | 255 to 256 °C | O=C1NCCc2c(-c3ccsc3)[nH]c3cccc1c23 [CCCC, 2-Thiophen-3-yl-1,3,4,5-tetrahydro-azepino[5,4,3-cd]indol-6-one]

Biological target: purified PARP protein (Homo sapiens, UniProt P09874)
Sequence (P09874 whole entry): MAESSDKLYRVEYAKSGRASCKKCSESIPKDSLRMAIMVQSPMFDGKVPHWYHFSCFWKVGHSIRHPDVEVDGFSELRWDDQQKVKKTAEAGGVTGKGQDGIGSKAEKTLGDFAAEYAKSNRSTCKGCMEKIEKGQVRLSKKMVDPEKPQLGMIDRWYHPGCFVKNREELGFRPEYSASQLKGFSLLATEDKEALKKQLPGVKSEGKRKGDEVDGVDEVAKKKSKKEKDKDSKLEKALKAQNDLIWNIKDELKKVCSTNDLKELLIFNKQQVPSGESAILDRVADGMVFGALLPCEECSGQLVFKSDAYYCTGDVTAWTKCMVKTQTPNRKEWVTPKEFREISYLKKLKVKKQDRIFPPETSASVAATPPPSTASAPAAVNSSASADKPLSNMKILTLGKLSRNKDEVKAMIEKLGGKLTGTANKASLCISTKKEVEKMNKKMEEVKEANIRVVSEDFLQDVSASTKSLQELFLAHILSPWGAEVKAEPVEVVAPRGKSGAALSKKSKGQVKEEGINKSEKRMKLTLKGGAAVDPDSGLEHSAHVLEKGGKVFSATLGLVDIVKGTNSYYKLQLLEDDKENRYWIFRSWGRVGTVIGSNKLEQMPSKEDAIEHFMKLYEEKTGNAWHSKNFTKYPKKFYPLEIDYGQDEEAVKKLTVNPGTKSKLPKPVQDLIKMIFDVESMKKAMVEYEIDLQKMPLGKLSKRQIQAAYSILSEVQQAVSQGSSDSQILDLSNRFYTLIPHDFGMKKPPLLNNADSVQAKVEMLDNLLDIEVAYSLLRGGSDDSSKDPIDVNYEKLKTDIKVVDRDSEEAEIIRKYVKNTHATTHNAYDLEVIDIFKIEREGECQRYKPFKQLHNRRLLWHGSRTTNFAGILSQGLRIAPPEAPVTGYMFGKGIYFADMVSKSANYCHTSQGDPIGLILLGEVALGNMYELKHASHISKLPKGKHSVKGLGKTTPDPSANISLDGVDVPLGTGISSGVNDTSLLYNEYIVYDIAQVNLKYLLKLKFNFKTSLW
Assay: PARP enzyme inhibition assay
Type: biochemical
Details: Inhibition Constant Ki

Row | Ki | Compound
11 | 7.7 nM | O=C1NCCc2c(-c3ccc[nH]3)[nH]c3cccc1c23 [DDDD, 2-(1H-Pyrrol-2-yl)-1,3,4,5-etatrhydro-azepino[5,4,3-cd]indol-6-one]

Same assay, conditions: [32P]NAD+ incorporation, 500 μM NAD+, 25° C.; two values in a cell = tested twice; read-out: Inhibition Constant Ki

Row | Compound | Ki
12 | O=C1NCC(c2ccccc2)c2c[nH]c3cccc1c23 (racemic) [Compound 20, (rac)-3-Phenyl-3,4,5,6-tetrahydro-1H-azepino[5,4,3-cd]indol-6-one] | 45 nM
13 | COc1ccc(C2CNC(=O)c3cccc4[nH]cc2c34)cc1 (racemic) [RRRR, (rac)-3-(4-Methoxyphenyl)-3,4,5,6-tetrahydro-1H-azepino[5,4,3-cd]indol-6-one] | 61 nM
14 | O=C1NCCc2c(-c3ccccc3CCCO)[nH]c3cccc1c23 [BBB, 2-[2-(3-Hydroxy-propyl)-phenyl]-1,3,4,5-tetrahydro-azepino[5,4,3-cd]indol-6-one] | 20 nM
15 | O=C1NCCc2c[nH]c3cccc1c23 [Compound 10, 3,4,5,6-tetrahydro-1H-azepino[5,4,3-cd]indol-6-one] | 38 nM
16 | Cn1c(-c2ccccc2)c2c3c(cccc31)C(=O)NCC2 [Compound 18, 1-Methyl-2-phenyl-3,4,5,6-tetrahydro-1H-azepino[5,4,3-cd]indol-6-one] | > 1000 nM
17 | O=C1NCCc2c(-c3ccccc3)[nH]c3cc(Br)cc1c23 [Compound 26, 8-Bromo-2-phenyl-3,4,5,6-tetrahydro-1H-azepino[5,4,3-cd]indol-6-one] | 22 nM and 18 nM
18 | O=C1NCCc2c(-c3ccc(F)c(Cl)c3)[nH]c3cccc1c23 [Compound 35, 2-(3-Chloro-4-fluoro-phenyl)-1,3,4,5-tetrahydro-azepino[5,4,3-cd]indol-6-one] | 3.8 nM and 5.8 nM
19 | O=C1NCCc2c(-c3[nH]c4cccc5c4c3CCNC5=O)[nH]c3cccc1c23 [Compound TTT, 1,3,4,5,1′,3′,4′,5′-Octahydro-[2,2′]bi[azepino[5,4,3-cd]indolyl]-6,6′-dione] | 26 nM
20 | O=C(O)c1[nH]c2cccc3c2c1CCNC3=O [KKK, 6-Oxo-3,4,5,6-tetrahydro-1H-azepino[5,4,3-cd]indole-2-carboxylic acid sodium salt] | 222 nM
21 | CC(=O)Nc1ccc(F)cc1-c1[nH]c2cccc3c2c1CCNC3=O [NNN, N-[4-Fluoro-2-(6-oxo-3,4,5,6-tetrahydro-1H-azepino[5,4,3-cd]indol-2-yl)-phenyl]-acetamide] | 172 nM
22 | O=C(NC1CC1)c1[nH]c2cccc3c2c1CCNC3=O [QQQQ, 6-Oxo-1,3,4,5-tetrahydro-1H-azepino[5,4,3-cd]indole-2-carboxylic Acid Cyclopropylamide] | 21 nM
23 | O=C1NCCc2c(-c3cccc(CN4CCOCC4)c3)[nH]c3cccc1c23 [SSSS, 2-(3-Morpholin-4-ylmethylphenyl)-3,4,5,6-tetrahydro-1H-azepino[5,4,3-cd]indol-6-one] | 19 nM
24 | O=C1NN=C(C(F)(F)C(F)(F)F)c2c[nH]c3cccc1c23 [ZZZZ, 1,5-Dihydro-3-pentafluoroethyl-[1,2]diazepino[4,5,6-cd]-indol-6-one] | 40 nM

The remaining lines, values ahead:

Row | Ki | Compound
25 | 11.4 nM | COC(=O)CCc1ccccc1-c1[nH]c2cccc3c2c1CCNC3=O [AAA, 3-[2-(6-Oxo-3,4,5,6-tetrahydro-1H-azepino[5,4,3-cd]indol-2-yl)-phenyl]-propionic acid methyl ester]
26 | 1.1 nM | O=C1NN=Cc2c(-c3ccc(F)cc3)[nH]c3cccc1c23 [AAAA]
27 | 7.3 nM | O=C1NCCc2c(-c3ccc(O)cc3)[nH]c3cccc1c23 [CCC, 2-(4-Hydroxy-phenyl)-1,3,4,5-tetrahydro-azepino[5,4,3-cd]indol-6-one]
28 | 4.8 nM | O=C1NCCc2c(-c3ccsc3)[nH]c3cccc1c23 [CCCC, 2-Thiophen-3-yl-1,3,4,5-tetrahydro-azepino[5,4,3-cd]indol-6-one]
29 | 2.8 nM | O=C1NCc2c(-c3ccccc3)[nH]c3cccc1c23 [Compound 3, Phenyl-3,4-dihydropyrrolo[4,3,2-de]isoquinolin-5-(1H)-one]
30 | 7.3 nM | O=C1NCCc2c(Br)[nH]c3cccc1c23 [Compound 11, 2-Bromo-3,4,5,6-tetrahydro-1H-azepino[5,4,3-cd]indol-6-one]
31 | 1.4 nM | O=C1NCCc2c(-c3cccc([N+](=O)[O-])c3)[nH]c3cccc1c23 [Compound 14, 2-(3-Nitrophenyl)-3,4,5,6-tetrahydro-1H-azepino[5,4,3-cd]indol-6-one]
32 | 6.5 nM | O=C1NCCc2c(C#Cc3ccccc3)[nH]c3cccc1c23 [Compound 17]
33 | 4 nM | CN(C)Cc1cccc(-c2[nH]c3cccc4c3c2CNC4=O)c1 [Compound 25]
34 | 2.6 nM | O=C1NCCc2c(I)[nH]c3cccc1c23 [Compound 43, 2-Iodo-1,3,4,5-tetrahydro-azepino[5,4,3-cd]indol-6-one]
35 | 8.6 nM | O=C(Nc1ccc(Cl)cc1)c1[nH]c2cccc3c2c1CCNC3=O [LLLL, 6-Oxo-1,3,4,5-tetrahydro-1H-azepino[5,4,3-cd]indole-2-carboxylic acid (4-chlorophenyl)-amide]
36 | 16 nM | O=C(Nc1ccc2ccccc2c1)c1[nH]c2cccc3c2c1CCNC3=O [MMMM, 6-Oxo-1,3,4,5-tetrahydro-1H-azepino[5,4,3-cd]indole-2-carboxylic Acid naphthalen-2-ylamide]
37 | 6.9 nM | Nc1cccc(-c2[nH]c3cccc4c3c2CCNC4=O)c1 [RR, 2-(3-Aminophenyl)-3,4,5,6-tetrahydro-1H-azepino[5,4,3-cd]indol-6-one]
38 | 5.7 nM | O=C1NCCc2c(-c3ccc(CO)cc3)[nH]c3cccc1c23 [WWWW, 2-(4-Hydroxymethylphenyl)-3,4,5,6-tetrahydro-1H-azepino[5,4,3-cd]indol-6-one]
39 | 9 nM | O=C1NN=C(c2ccc(C(F)(F)F)cc2)c2c[nH]c3cccc1c23 [YYYY]
40 | 0.7 nM | O=C1NN=Cc2c(-c3ccc(Cl)cc3)[nH]c3cccc1c23 [ZZZ, (4-Chloro-phenyl)-1,5-dihydro-[1,2]diazepino[4,5,6-cd]indol-6-one]
